# What was measured:
# [1] = target: T1, M-phase inducer phosphatase 3 (Homo sapiens, UniProt P30307); experiment: Inhibition of Cdc25C (unknown origin) phosphatase activity assessed as fluorescence by BMG plate reader in the absence of detergent
# T1 sequence (P30307 whole entry): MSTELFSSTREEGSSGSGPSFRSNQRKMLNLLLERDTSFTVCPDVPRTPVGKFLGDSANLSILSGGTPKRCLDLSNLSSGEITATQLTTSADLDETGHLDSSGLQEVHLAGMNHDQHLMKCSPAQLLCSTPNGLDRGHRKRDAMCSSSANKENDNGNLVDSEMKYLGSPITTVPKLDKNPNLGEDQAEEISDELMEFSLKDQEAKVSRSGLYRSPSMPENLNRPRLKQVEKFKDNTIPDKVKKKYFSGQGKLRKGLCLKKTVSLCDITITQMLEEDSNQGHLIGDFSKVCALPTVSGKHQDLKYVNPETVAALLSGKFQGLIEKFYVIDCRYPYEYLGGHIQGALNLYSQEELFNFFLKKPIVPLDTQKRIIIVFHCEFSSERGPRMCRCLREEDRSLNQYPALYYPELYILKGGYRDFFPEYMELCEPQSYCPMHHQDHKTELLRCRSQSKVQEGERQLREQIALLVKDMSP
# [2] = target: T2, M-phase inducer phosphatase 1 (Homo sapiens, UniProt P30304); experiment: Inhibition of Cdc25A (unknown origin) phosphatase activity assessed as fluorescence by BMG plate reader in the absence of detergent
# T2 sequence (P30304 whole entry): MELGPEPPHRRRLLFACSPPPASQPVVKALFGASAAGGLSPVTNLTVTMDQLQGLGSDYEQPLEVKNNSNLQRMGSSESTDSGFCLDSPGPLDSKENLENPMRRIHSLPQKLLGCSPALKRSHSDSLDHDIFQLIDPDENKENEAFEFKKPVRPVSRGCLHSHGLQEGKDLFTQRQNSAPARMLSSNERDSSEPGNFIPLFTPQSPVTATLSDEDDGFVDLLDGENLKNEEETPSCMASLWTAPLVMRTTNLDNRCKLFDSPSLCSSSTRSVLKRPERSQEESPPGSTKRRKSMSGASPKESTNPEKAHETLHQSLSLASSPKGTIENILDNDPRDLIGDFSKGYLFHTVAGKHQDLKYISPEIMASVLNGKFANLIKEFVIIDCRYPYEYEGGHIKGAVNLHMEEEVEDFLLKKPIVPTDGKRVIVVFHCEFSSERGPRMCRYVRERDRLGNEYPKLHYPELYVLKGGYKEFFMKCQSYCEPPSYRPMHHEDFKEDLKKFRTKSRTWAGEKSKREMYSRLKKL
# [3] = target: T3, Dual specificity protein phosphatase 3 (Homo sapiens, UniProt P51452); experiment: Inhibition of human His-tagged VHR phosphatase activity assessed as fluorescence by BMG plate reader in the presence of 0.005% Tween-20
# [4] = target: T3, Dual specificity protein phosphatase 3; experiment: Inhibition of human His-tagged VHR phosphatase activity assessed as fluorescence by BMG plate reader in the absence of detergent
# [5] = target: T4, M-phase inducer phosphatase 2 (Homo sapiens, UniProt P30305); experiment: Inhibition of Cdc25B (unknown origin) phosphatase activity assessed as fluorescence by BMG plate reader in the absence of detergent
# T4 sequence (P30305 whole entry): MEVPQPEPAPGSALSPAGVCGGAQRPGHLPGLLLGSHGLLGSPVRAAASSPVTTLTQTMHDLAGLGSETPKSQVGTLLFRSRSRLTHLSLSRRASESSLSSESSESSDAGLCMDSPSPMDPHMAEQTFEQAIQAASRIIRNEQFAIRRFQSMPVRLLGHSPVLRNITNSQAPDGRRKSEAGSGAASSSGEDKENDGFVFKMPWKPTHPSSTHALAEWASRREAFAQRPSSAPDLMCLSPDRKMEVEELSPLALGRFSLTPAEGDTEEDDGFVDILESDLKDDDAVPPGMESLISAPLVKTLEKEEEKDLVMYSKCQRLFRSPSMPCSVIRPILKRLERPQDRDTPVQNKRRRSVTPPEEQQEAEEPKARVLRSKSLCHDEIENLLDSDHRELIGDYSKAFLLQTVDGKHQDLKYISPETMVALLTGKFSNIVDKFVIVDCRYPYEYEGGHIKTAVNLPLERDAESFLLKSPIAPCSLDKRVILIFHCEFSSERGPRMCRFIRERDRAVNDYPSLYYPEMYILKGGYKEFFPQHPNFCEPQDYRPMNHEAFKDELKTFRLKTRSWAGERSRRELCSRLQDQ
# [6] = target: T2, M-phase inducer phosphatase 1; experiment: Inhibition of Cdc25A (unknown origin) phosphatase activity assessed as fluorescence by BMG plate reader in the presence of 0.005% Tween-20
# [7] = target: T4, M-phase inducer phosphatase 2; experiment: Inhibition of Cdc25B (unknown origin) phosphatase activity assessed as fluorescence by BMG plate reader in the presence of 0.005% Tween-20
# [8] = target: T1, M-phase inducer phosphatase 3; experiment: Inhibition of Cdc25C (unknown origin) phosphatase activity assessed as fluorescence by BMG plate reader in the presence of 0.005% Tween-20
# Homo sapiens [9] = species: Homo sapiens; experiment: Inhibition of MKP-5/p38 (unknown origin) phosphatase activity assessed as fluorescence at 100 uM by BMG plate reader in the presence of 0.005% Tween-20
# Homo sapiens [10] = species: Homo sapiens; experiment: Inhibition of alkaline phosphatase (unknown origin) phosphatase activity assessed as fluorescence at 100 uM by BMG plate reader in the presence of 0.005% Tween-20
# [11] = target: T5, Tyrosine-protein phosphatase non-receptor type 1 (Homo sapiens) (UniProt P18031); experiment: Inhibition of PTP1B (unknown origin) phosphatase activity assessed as fluorescence at 100 uM by BMG plate reader in the presence of 0.005% Tween-20
# T5 sequence (whole entry): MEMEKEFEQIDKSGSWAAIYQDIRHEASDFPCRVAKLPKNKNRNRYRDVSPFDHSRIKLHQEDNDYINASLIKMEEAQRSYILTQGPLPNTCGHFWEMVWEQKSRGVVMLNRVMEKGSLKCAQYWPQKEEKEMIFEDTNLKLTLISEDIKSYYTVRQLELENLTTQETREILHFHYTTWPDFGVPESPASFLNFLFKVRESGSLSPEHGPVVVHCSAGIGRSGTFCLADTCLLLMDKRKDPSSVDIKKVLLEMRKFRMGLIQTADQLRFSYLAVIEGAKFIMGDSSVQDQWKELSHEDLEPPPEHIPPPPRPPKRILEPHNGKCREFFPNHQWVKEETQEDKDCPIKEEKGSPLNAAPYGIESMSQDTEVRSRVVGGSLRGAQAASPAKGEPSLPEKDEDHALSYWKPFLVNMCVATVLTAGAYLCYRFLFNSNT
# T3 sequence (P51452 whole entry): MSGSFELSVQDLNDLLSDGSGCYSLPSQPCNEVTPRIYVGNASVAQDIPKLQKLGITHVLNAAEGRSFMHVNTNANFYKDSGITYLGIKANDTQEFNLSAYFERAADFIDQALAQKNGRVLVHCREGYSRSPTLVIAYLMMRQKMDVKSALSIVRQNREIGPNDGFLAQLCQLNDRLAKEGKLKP
IC50 [1],IC50 [2],IC50 [3],IC50 [4],IC50 [5],IC50 [6],IC50 [7],IC50 [8],inhibition (Homo sapiens [9]),inhibition (Homo sapiens [10]),inhibition [11],Structure (SMILES)
> 100 µM,17.8 µM,> 100 µM,26.1 µM,> 100 µM,> 100 µM,> 100 µM,> 100 µM,,,,O=C(Nc1cccc(-c2csc(-c3ccccc3)n2)c1)c1ccco1
10.2 µM,2.4 µM,20.1 µM,1.9 µM,8.9 µM,23.6 µM,17.9 µM,47.3 µM,< 50%,< 50%,< 50%,CCOc1ccc(-c2nc(-c3ccc4[nH]c(=O)[nH]c4c3)cs2)cc1
> 100 µM,9.5 µM,64.5 µM,10.6 µM,22.7 µM,33.6 µM,50 µM,47.6 µM,< 50%,< 50%,< 50%,CCOc1ccc(-c2nc(-c3ccc4c(c3)CC(=O)N4C)cs2)cc1
,,> 100 µM,,,12.2 µM,3.1 µM,8.8 µM,,,,N#Cc1ccc(-c2csc(-c3ccc(-c4csnn4)cc3)n2)cc1
24.3 µM,5.6 µM,40.1 µM,8 µM,19 µM,31.8 µM,34.4 µM,37.8 µM,< 50%,< 50%,< 50%,Cc1cccc(-c2nc(-c3ccc4c(c3)CCN4S(C)(=O)=O)cs2)c1
24.7 µM,6.4 µM,33.3 µM,8.3 µM,12.1 µM,31.1 µM,23.6 µM,> 100 µM,< 50%,< 50%,< 50%,COc1ccc(-c2nc(-c3cc(C)n(CC4CCCO4)c3C)cs2)cc1 (configuration not stated)
31.5 µM,13 µM,61 µM,4.4 µM,13.6 µM,30 µM,> 100 µM,71.5 µM,< 50%,< 50%,< 50%,CCOc1ccc(-c2nc(-c3ccc4ccccc4c3)cs2)cc1
,,,,,5 µM,5 µM,5 µM,,,,O=C1C(=O)c2c(C(=O)c3ccccc3)coc2-c2ccccc21
,,,,,,2 µM,,,,,CCOc1ccc(-c2nn(-c3ccccc3)cc2/C=C2\SC(=O)N(C)C2=O)cc1Br
16.8 µM,10.2 µM,> 100 µM,8.9 µM,14.9 µM,> 100 µM,> 100 µM,42.2 µM,,,,COc1ccc(-c2csc(-c3cccc(NC(=O)C4CC4)c3)n2)cc1
,,65.7 µM,,,7.5 µM,2.69 µM,11 µM,,,,O=C(/C=C/c1ccc2c(c1)OCO2)Nc1nc(-c2ccc(F)cc2F)cs1
14.2 µM,4 µM,40.2 µM,2.7 µM,10.1 µM,41.7 µM,31.3 µM,42.6 µM,< 50%,< 50%,< 50%,COc1ccccc1-c1nc(-c2ccc3c(c2)CCN3S(C)(=O)=O)cs1
,,> 100 µM,,,25.7 µM,16 µM,40 µM,,,,O=C(Nc1nc(-c2ccc(F)cc2)cs1)c1cnccn1
,,> 100 µM,,,25 µM,19.7 µM,> 100 µM,,,,COc1ccc(-c2nc(-c3cnc(N)nc3)cs2)cc1
,,> 100 µM,,,6.9 µM,4.2 µM,8.6 µM,,,,O=C(Nc1cccc(-c2csc(-c3ccccc3)n2)c1)c1cccc(=O)[nH]1
,,17 µM,,,20.1 µM,0.9 µM,8.2 µM,,,,O=C(CCC(=O)Nc1nc(-c2cc3ccccc3oc2=O)cs1)NCc1ccc2c(c1)OCO2
,,> 100 µM,,,17.5 µM,6.8 µM,,,,,COc1ccc(-c2nc(C(=O)Nc3ccc[nH]c3=O)cs2)cc1
,,24.9 µM,,,12.3 µM,5.9 µM,9.4 µM,,,,O=C(CCC(=O)NC1CCCC1)Nc1nc(-c2cc3ccccc3oc2=O)cs1
,,26 µM,,,2.7 µM,1.7 µM,9.7 µM,,,,O=S(=O)(Cc1ccco1)Cc1nc(-c2ccc(-c3ccccc3)cc2)cs1
18 µM,6.5 µM,45.4 µM,8.1 µM,17.5 µM,42.9 µM,26.1 µM,42.5 µM,< 50%,< 50%,< 50%,COc1ccc(-c2nc(-c3ccc4c(c3)CCN4S(C)(=O)=O)cs2)cc1
,,,,,,13 µM,,,,,CCOC(=O)C1=C(C)N=c2s/c(=C\c3ccc(O)cc3)c(=O)n2C1c1ccc2c(c1)OCO2 (configuration not stated)

Structure (SMILES),IC50 [1],IC50 [2],IC50 [3],IC50 [4],IC50 [5],IC50 [6],IC50 [7],IC50 [8],inhibition (Homo sapiens [9]),inhibition (Homo sapiens [10]),inhibition [11]
O=c1[nH]c2cc(S(=O)(=O)Nc3cccc(-c4csc(-c5ccccc5)n4)c3)ccc2o1,,,34.8 µM,,,2.2 µM,3.5 µM,44.4 µM,,,
